Experimental data: PMC11851430, “Workflow for E3 Ligase Ligand Validation for PROTAC Development” (ACS Chemical Biology, 2025)
Like-named read-outs stand apart in the source and are kept apart here.

How the values were obtained:
[1] = biological target: T1, ITK^HiBiT (Homo sapiens, UniProt Q08881); assay: HiBiT assay, Jurkat cells expressing ITK^HiBiT; type: cell-based; conditions: 6 h
T1 construct: HiBiT-ITK construct was cloned by PCR amplification of vector containing full-length; expressed in transfected cells
T1 sequence (Q08881 1-620): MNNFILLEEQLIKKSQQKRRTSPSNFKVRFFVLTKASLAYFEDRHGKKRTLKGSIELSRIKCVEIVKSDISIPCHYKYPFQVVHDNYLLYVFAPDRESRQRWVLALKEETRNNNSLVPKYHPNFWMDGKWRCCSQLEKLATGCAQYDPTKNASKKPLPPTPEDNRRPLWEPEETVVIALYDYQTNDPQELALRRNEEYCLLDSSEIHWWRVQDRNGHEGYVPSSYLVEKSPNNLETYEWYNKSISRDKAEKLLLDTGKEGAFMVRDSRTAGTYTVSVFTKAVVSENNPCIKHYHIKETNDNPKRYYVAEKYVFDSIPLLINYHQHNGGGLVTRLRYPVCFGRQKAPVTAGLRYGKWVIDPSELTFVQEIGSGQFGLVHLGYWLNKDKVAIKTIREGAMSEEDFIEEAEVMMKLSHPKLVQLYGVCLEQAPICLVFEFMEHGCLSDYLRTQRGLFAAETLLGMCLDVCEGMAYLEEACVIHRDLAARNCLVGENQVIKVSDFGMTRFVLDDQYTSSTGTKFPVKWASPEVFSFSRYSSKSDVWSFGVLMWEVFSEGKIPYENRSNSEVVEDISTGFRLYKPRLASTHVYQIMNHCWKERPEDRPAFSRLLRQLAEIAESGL
Method: Cell culture. Human MV4-11 ([…]) and human Jurkat ([…]) cells were cultured in RPMI- […]
1640 medium whereas human HEK293 ([…]) cells were cultured in DMEM medium at 37 °C in 5% CO2. Both media were supplemented with 10% FBS and 1% penicillin/streptomycin.
Cloning. HiBiT-ITK construct was cloned by PCR amplification of vector containing full-length
ITK. The PCR product was inserted into pRRL-PGK-HiBiT entry vector using AgeI/MluI sites.
The following primers were used for cloning HiBiT-ITK; forward: […]
Cell line generation. The stable cell line MV4-11 AURORA−HiBiT was generated as previously described.14 Lentiviral infection was used to generate the stable Jurkat HiBiT cell line.
Lentivirus was produced using plasmids psPAX2, pMD2.G, and HiBiT-ITK plasmid in HEK293 cells. Jurkat cells were infected with filtered virus supernatant and selected after 48 h of infection for the generation of the stable JurkatITK-HiBiT cell line.
HiBiT Measurements. HiBiT assay was performed as described previously. 14 Briefly, MV4-11 and Jurkat HiBiT cells were seeded and treated with compounds for the indicated time. Nano-Glo HiBiT Lytic Detection System (Promega) was used for the assay and luminescence was measured on a Tecan Spark Multiplate reader (Tecan). DC50s were calculated using the dose-response (four parameters) equation in Prism (GraphPad).

[2] = biological target: T2, AURKA (Homo sapiens, UniProt O14965); assay: cell-based; parameters: species or system HEK293T; NanoBRET tracer displacement in intact cells, NanoLuc fusion protein, Tracer K10; conditions: intact cells; read-out: AURKA intact (IC50±sd)/µM
T2 sequence (O14965 1-403): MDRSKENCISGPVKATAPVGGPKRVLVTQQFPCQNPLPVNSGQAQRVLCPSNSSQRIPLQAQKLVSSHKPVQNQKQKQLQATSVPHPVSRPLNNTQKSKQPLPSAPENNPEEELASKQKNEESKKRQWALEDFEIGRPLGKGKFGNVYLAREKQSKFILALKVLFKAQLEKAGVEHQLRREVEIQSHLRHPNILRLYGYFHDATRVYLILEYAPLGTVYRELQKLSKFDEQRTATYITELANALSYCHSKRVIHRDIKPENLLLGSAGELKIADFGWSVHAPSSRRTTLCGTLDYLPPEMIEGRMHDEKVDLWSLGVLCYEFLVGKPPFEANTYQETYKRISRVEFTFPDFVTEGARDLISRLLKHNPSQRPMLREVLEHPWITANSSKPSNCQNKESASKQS
Source text: (§1) Compounds were pipetted at various concentrations using an Echo acoustic dispenser (Labcyte), immediately followed by Tracer K10 (Promega, Tracer DB ID: T000008) for AAK1 and Aurora A and VHL Tracer (Promega, Tracer DB ID: T000019) for VHL, at an optimum KD concentration chosen from TracerDB (tracerdb.org), respectively.

[3] = biological target: T3, full-length AAK1 (Homo sapiens, UniProt Q2M2I8); assay: cell-based; parameters: species or system HEK293T; NanoBRET tracer displacement in intact cells, NanoLuc fusion protein, Tracer K10; conditions: intact cells; read-out: AAK1 intact (IC50±sd)/µM
T3 sequence (Q2M2I8 whole entry, the tested form may be a part): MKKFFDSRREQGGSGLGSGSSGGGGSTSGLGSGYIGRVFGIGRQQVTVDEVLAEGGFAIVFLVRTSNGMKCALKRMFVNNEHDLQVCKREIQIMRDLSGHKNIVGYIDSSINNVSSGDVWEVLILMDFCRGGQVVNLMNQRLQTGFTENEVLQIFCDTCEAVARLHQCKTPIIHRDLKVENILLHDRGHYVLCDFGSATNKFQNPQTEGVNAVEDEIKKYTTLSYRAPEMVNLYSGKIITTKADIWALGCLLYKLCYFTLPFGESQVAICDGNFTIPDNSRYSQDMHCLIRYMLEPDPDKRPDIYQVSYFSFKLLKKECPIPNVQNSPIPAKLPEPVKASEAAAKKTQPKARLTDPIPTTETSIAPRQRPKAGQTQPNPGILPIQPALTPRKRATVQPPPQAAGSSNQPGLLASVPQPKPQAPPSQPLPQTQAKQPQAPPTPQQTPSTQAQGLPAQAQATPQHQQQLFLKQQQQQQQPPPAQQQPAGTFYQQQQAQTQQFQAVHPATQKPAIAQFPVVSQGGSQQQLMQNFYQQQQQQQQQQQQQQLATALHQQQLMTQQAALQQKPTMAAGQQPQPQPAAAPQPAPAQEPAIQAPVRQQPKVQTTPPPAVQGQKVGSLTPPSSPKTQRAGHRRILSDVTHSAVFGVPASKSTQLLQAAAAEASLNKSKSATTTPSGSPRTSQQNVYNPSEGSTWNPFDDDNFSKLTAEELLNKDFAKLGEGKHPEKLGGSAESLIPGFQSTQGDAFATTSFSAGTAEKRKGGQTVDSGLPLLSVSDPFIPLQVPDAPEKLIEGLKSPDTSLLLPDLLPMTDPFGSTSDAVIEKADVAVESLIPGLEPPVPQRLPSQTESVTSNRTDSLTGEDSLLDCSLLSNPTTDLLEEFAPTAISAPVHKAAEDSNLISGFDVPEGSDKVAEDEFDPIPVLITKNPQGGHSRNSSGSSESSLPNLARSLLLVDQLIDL
Source text: as §1

[4] = biological target: T3, full-length AAK1; assay: cell-based; parameters: species or system HEK293T; NanoBRET tracer displacement in permeabilized cells, NanoLuc fusion protein, Tracer K10; conditions: permeabilized cells; read-out: AAK1 permeabilized (IC50±sd)/µM
[5] = biological target: T2, AURKA; assay: cell-based; parameters: species or system HEK293T; NanoBRET tracer displacement in permeabilized cells, NanoLuc fusion protein, Tracer K10; conditions: permeabilized cells; read-out: AURKA permeabilized (IC50±sd)/µM

Row | Compound | DC50 [1] [nM] | Dmax [1] [%] | IC50 [2] [µM] | IC50 [3] [µM] | IC50 [4] [µM] | IC50 [5] [µM] | concentration at which a hook effect was observed [1] [µM]
1 | Cc1ncsc1-c1ccc(CNC(=O)[C@@H]2C[C@@H](O)CN2C(=O)[C@@H](NC(=O)CCOCCOCCOCCN2CCN(c3cc(Nc4cc(C5CC5)[nH]n4)nc(Nc4ccc(CC#N)cc4)n3)CC2)C(C)(C)C)cc1 [4-a] | 937 | ≤ 71 |  |  |  |  | 
2 | Cc1ncsc1-c1ccc(CNC(=O)[C@@H]2C[C@H](O)CN2C(=O)[C@@H](NC(=O)CCOCCOCCOCCN2CCN(c3cc(Nc4cc(C5CC5)[nH]n4)nc(Nc4ccc(CC#N)cc4)n3)CC2)C(C)(C)C)cc1 [4-a^neg] |  |  | 5.04 ± 1.12 | 0.108 ± 0.042 | 0.04 ± 0.001 | 1.89 ± 0.025 | 
3 | Cc1ncsc1-c1ccc(CNC(=O)[C@@H]2C[C@@H](O)CN2C(=O)[C@@H](NC(=O)CCOCCOCCOCCOCCN2CCN(c3ccc(Nc4ncc(Cl)c(Nc5ccccc5C(N)=O)n4)cc3)CC2)C(C)(C)C)cc1 [6-b] | 42 | ≤ 71 |  |  |  |  | > 1
